The source of these data is PubChem BioAssay AID1918946 (Molecular Pharmacology Branch, DTP, NCI, 2023).

This assay concerns 885512-296-R-J2-PDC complex spheroid viability. As to the kind of experiment: Anticancer human tumor 885512-296-R-J2-PDC patient-derived breast carcinoma cell line growth inhibition. The note with it: for viability, T/C: stronger effect = lower value; for IC50: curve of compound. The source says: Multicellular complex tumor spheroid response to LSD1 Inhibitor Iadademstat in combination with a variety of drugs and investigational agents in selected tumor cell lines
The current study was undertaken to assess response to LSD1 inhibitors in combination with standard-of-care drugs and investigational agents in solid tumor complex spheroid models as well as in the K-562 leukemia. Complex spheroids include a stromal component modeled by human endothelial cells (HUVEC) and fibroblasts modeled by human mesenchymal stem cells (MSCs). The concentration ranges selected for each drug and investigational agent were based upon clinically achievable concentrations if the clinical Cmax of the agent was known.
Compounds. The drugs and investigational agents used in this study are listed on Table 1. All of the agents used, including staurosporine (NSC755774) and gemcitabine (NSC613327), were obtained from the Developmental Therapeutics Program, NCI. FDA-approved anticancer drugs are available from the NCI at http://dtp.nci.nih.gov/branches/dscb/oncology_drugset_explanation.html. Drugs and investigational agents were >95% pure by proton nuclear magnetic resonance (NMR) and liquid chromatography/mass spectrometry (LC/MS). Stock solutions were prepared at 400x in DMSO, stored at -70 degrees C, and diluted in fresh medium prior to their use. The final concentration of DMSO in cell culture wells never exceeded 0.25% (v/v). The FDA-approved anticancer drug set is available from the Developmental Therapeutics Program at https://dtp.cancer.gov/organization/dscb/obtaining/available_plates.htm. All drugs and investigational agents were tested over a range starting from a high concentration at or near the clinical Cmax and decreasing in half-log increments. If the clinical Cmax for an agent had not been determined, the highest concentration tested was 10 microM.
Cell Lines. The patient-derived cancer cell (PDC) lines: 292921-168-R-J2-PDC, K24384-001-R-PDC, and 521955-158-R2-J5-PDC pancreatic carcinomas, 556581-035-R-J1 ovarian carcinoma, 324938-238-R-J1-PDC, 855422-203-R-J1-PDC and 883617-216-R-J1-PDC urothelial bladder carcinomas, 743489-274-T-PDC renal cell carcinoma, 138582-R-J1 Merkel cell tumor, K60290-347-R-J1 and K57222-313-R-J1-PDC glioblastomas, 653999-131-R-J2-PDC, LG0703-F948-PDC, and 349418-098-R-PDC non-small cell lung carcinomas, 885512-296-R-J2-PDC, 171881-019-R-J1-PDC breast carcinomas and 186277-243-T-J2-PDC and 233499-124-R-J2-PDC colon carcinomas were obtained from the NCI Patient-Derived Models Repository (PDMR, https://pdmr.cancer.gov). The established cell lines NCI/ADR-RES (RRID:CVCL_14520 and OVCAR-5 (RRID:CVCL_1628) ovarian carcinomas, 786-O (RRID:CVCL_1051) and A498 (RRID:CVCL_A498) renal cell carcinoma, NCI-H211 (ATCC, cat. CRL-5824; RRID:CVCL_1529), NCI-H196 (ATCC, cat. CRL-5823, RRID:CVCL_1509), SW 1271 (ATCC, cat. CRL-2177, RRID:CVCL_1716) and NCI-H1876 (ATCC, cat. CRL-5902, RRID:CVCL_1503) small cell lung carcinomas, MDA-MB-231 (RRID:CVCL_0062) and MDA-MB-468 (RRID:CVCL_0419)breast carcinomas (10-12). Pooled donor human umbilical vein endothelial cells (HUVEC, Lonza, cat. CC-2519) and human mesenchymal stem cells (hMSC, Lonza, cat. PT-2501) were purchased from Lonza (Walkersville, MD).
Cell Culture. All cells were maintained in an incubator at 37 degrees C and 5% CO2 with 95% humidity. The PDC lines were cultured according to standard operating procedures established by the NCI PDMR (https://pdmr.cancer.gov). Briefly all PDCs were thawed and cultured in Matrigel-coated flasks prepared with a working solution of 1X Ham's F-12 nutrient mix, without supplementation (Invitrogen, Waltham, MA, cat. 11765054), 100 U/mL penicillin-streptomycin (Invitrogen, cat. 15140122), and 2.5% Matrigel (Corning Inc., Corning, NY, cat. 354248) for the first three passages. […]

“And” between values parts separate entries of the source, which are not always exact repeats. Equal entries are not always repeated. Bounds are passed on as bounds.
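Further: spheroids exposed to agents for 7 days before viability read.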

Broadly, the viability, T/C is the result in the treated group divided by that in the control group, in per cent. In general, IC50 refers to the concentration that gives 50% inhibition. Take `CC(C)CC(NC(=O)C(Cc1ccccc1)NC(=O)c1cnccn1)B(O)O` (stereo unspecified): the half-inhibitory concentration (IC50) is 0.879 nM and < 0.316 nM. Under “compound 0.000316 µM”, the viability, T/C is 99.8% and 17.9%. For the same compound, where the note is “compound 0.00316 µM”, the viability, T/C was 2.61% and 0.22%. In addition, the viability, T/C (compound 0.01 µM) is 4.07% and 0.18%. Further, the viability, T/C (compound 0.0316 µM) was 0.12% and 0.1%. Also, where the note is “compound 0.1 µM”, the viability, T/C was 3.52% and 0.14%.

For `CC(C)CC(NC(=O)CNC(=O)c1cc(Cl)ccc1Cl)B1OC(=O)CC(CC(=O)O)(C(=O)O)O1` (stereo unspecified), the IC50 is 6.45 nM and 4.56 nM. The viability, T/C (compound 0.000316 µM) is 102% and 89.6%. Where the note is “compound 0.001 µM”, the viability, T/C was 84.1% and 89.2%. Further, the viability, T/C (compound 0.00316 µM) was 96.3% and 68.9%. Further, where the note is “compound 0.01 µM”, the viability, T/C was 22.7% and 9.34%. Moreover, where the note is “compound 0.0316 µM”, the viability, T/C was 8.52% and 2.1%. The viability, T/C (compound 0.1 µM) was 4.36% and 0.41%.

Consider `CC1(C)CCC(CN2CCN(c3ccc(C(=O)NS(=O)(=O)c4ccc(NCC5CCOCC5)c([N+](=O)[O-])c4)c(Oc4cnc5[nH]ccc5c4)c3)CC2)=C(c2ccc(Cl)cc2)C1`, for which the concentration for half-maximal inhibition (IC50) was 3310 nM and 1320 nM. The viability, T/C (compound 0.0316 µM) is 121% and 95.1%. Where the note is “compound 0.1 µM”, the viability, T/C was 109% and 91%. Also, the viability, T/C (compound 0.316 µM) was 89.3% and 82%. The viability, T/C (compound 1 µM) was 72.6% and 61.4%. Where the note is “compound 3.16 µM”, the viability, T/C is 63.1% and 19.3%. The viability, T/C (compound 10 µM) was 10.2% and 0.17%.

As to `CC1COCCN1c1cc(-c2ccnn2C)c2ccnc(-c3ccn[nH]3)c2n1` (stereo unspecified), the IC50 is under 3.16 nM. Further, the viability, T/C (compound 0.01 µM) is 6.26% and 3.04%. Also, under “compound 0.0316 µM”, the viability, T/C was 2.66% and 1.79%. Further, the viability, T/C (compound 0.1 µM) was 2.1% and 2.15%. For the setting “compound 0.316 µM”, the viability, T/C is 4.57% and 2.49%. For the same compound, for the setting “compound 1 µM”, the viability, T/C is 11.1% and 3.37%.

Regarding `CCN(c1cc(-c2ccc(CN3CCOCC3)cc2)cc(C(=O)NCc2c(C)cc(C)[nH]c2=O)c1C)C1CCOCC1`, the concentration for half-maximal inhibition (IC50) is 1700 nM and 188 nM. Moreover, under “compound 0.00949 µM”, the viability, T/C is 92.3% and 81.8%. Also, the viability, T/C (compound 0.03 µM) was 80.2% and 89.8%. Also, the viability, T/C (compound 0.0949 µM) was 74.8% and 68%. Moreover, where the note is “compound 0.3 µM”, the viability, T/C is 60.2% and 35.7%. Besides, the viability, T/C (compound 0.949 µM) was 76.2% and 18.2%. The viability, T/C (compound 3 µM) is 25.1% and 7.11%.

As to `CC[C@@]1(O)C(=O)OCc2c1cc1n(c2=O)Cc2cc3c(CN(C)C)c(O)ccc3nc2-1`, the IC50 was 0.41 nM and 0.678 nM. Further, the viability, T/C (compound 0.000316 µM) was 59.8% and 76.7%. Further, the viability, T/C (compound 0.001 µM) is 16.6% and 36.4%. Besides, the viability, T/C (compound 0.00316 µM) was 8.16% and 3.47%. The viability, T/C (compound 0.01 µM) was 7.89% and 3.58%. Further, the viability, T/C (compound 0.0316 µM) was 9.39% and 2.75%. The viability, T/C (compound 0.1 µM) was 9.51% and 1.92%.

As for `CCc1c2c(nc3ccc(O)cc13)-c1cc3c(c(=O)n1C2)COC(=O)[C@]3(O)CC`, the half-inhibitory concentration (IC50) was under 0.949 nM. Moreover, the viability, T/C (compound 0.000949 µM) is 7.33% and 2.09%. In addition, the viability, T/C (compound 0.003 µM) is 4.69% and 2%. Moreover, the viability, T/C (compound 0.00949 µM) was 4.28% and 1.07%. For the same compound, the viability, T/C (compound 0.03 µM) is 6.78% and 1.14%. The viability, T/C (compound 0.0949 µM) is 12.3% and 1.2%. Where the note is “compound 0.3 µM”, the viability, T/C is 3.96% and 1.27%.

In the case of `COc1cc(C2c3cc4c(cc3C(OC3OC5COC(C)OC5C(O)C3O)C3COC(=O)C23)OCO4)cc(OC)c1O` (stereo unspecified), the IC50 was 50.5 nM and 47 nM. Besides, the viability, T/C (compound 0.00949 µM) was 86.4% and 69.3%. Further, the viability, T/C (compound 0.03 µM) is 64.5% and 70.5%. Also, the viability, T/C (compound 0.0949 µM) is 32.7% and 18.8%. In addition, the viability, T/C (compound 0.3 µM) was 10.8% and 4.99%. Also, for the setting “compound 0.949 µM”, the viability, T/C is 6.14% and 3.49%. Further, the viability, T/C (compound 3 µM) was 7.43% and 2.68%.

Consider `COc1cc(Nc2ncc3c(n2)-c2ccc(Cl)cc2C(c2c(F)cccc2OC)=NC3)ccc1C(=O)O`, for which the half-maximal inhibitory concentration (IC50) was 5.39 nM and < 3.16 nM. Under “compound 0.00316 µM”, the viability, T/C was 63.8% and 24.6%. Moreover, where the note is “compound 0.01 µM”, the viability, T/C was 32.3% and 28.3%. Moreover, under “compound 0.0316 µM”, the viability, T/C is 23% and 22.3%. Also, the viability, T/C (compound 0.1 µM) is 31.3% and 21%. Under “compound 0.316 µM”, the viability, T/C is 14.5% and 18.3%. Further, the viability, T/C (compound 1 µM) is 12% and 14.3%.
